Entries after “also recorded” stand apart in the source; their conditions may differ. Structures can show the parent of a compound that is named as a salt. Where two headings read alike, the source gives them in different places.
How the values were obtained:
HT29 cells = test: Sensitisation of HT29 cells to SN38 (Alamar blue cell growth); type: cell-based, human; settings: for fold shift in the IC50 value of SN38: HT29 cells; for Cell potentiation factor: SN38 sensitisation assay in HT-29 cells
Experimental: Studies were carried out to test the sensitising effect of compounds of the invention on the ability of the DNA damaging compound 7-ethyl-10-hydroxycamptothecin (SN38), an active metabolite of the anti-cancer drug irinotecan, to inhibit cell growth in HT29 cells.
The following protocol was used:
(a) HT29 cells were seeded in 96-well plates at a concentration of 3000 cells per well and allowed to adhere overnight prior to addition of compound or vehicle control.
(b) SN38 was prepared from a 10 mM DMSO stock to give a final concentration range of 1 μM, 300 nM, 100 nM, 30 nM, 10 nM, 3 nM, 1 nM, and vehicle control.
(c) Test compounds were prepared from 10 mM DMSO stocks to typically give a final concentration range of 3 μM, 1 μM, 0.3 μM. 0.1 μM, 0.03 μM and vehicle control. The final DMSO content was 0.4%.
(d) Test compounds were incubated with the cells for 72 h at 37° C. 5% CO2 in a humidified atmosphere.
(e) Alamar blue 10% (v/v) was then added and incubated for a further 6 h, and fluorescent product detected using the BMG FLUOstar plate reader.
(f) Data were analysed using a 4-parameter logistic equation in GraphPad Prism.
Sensitisation is determined by the enhancement in IC50 of SN38 by the addition of the Chk-1 kinase inhibitor. In the protocol described above, the IC50 for SN-38 is determined the presence of varying doses of the Chk-1 inhibitor. The fold shift represents a decrease in IC50 for SN-38 at a dose of Chk-1 inhibitor that has no effect by itself.

Chk-1 kinase = Chk-1 kinase (Homo sapiens (Human), UniProt O14757); test: Chk-1 kinase inhibiting activity (33P-ATP filter assay, CHKtide substrate); type: biochemical
Chain of Chk-1 kinase (O14757 whole entry): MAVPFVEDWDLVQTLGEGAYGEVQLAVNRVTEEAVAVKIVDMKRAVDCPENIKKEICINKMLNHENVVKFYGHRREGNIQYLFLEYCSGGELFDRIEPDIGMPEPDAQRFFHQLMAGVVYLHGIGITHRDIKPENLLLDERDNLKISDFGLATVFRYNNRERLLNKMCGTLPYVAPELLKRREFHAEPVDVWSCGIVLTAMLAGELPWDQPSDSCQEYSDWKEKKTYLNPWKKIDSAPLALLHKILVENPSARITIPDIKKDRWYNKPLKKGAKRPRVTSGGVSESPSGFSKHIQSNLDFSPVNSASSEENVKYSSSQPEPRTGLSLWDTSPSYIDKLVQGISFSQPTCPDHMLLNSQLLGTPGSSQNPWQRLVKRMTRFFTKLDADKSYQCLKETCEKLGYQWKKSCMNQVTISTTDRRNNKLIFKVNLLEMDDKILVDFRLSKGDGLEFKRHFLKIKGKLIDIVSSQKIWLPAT
Experimental: The compounds of the invention were tested for activity against Chk-1 kinase using the materials and protocols set out below.
Base Reaction buffer: 20 mM Hepes (pH 7.5), 10 mM MgCl2, 1 mM EGTA, 0.02% Brij35, 0.02 mg/ml BSA, 0.1 mM Na3VO4, 2 mM DTT, 1% DMSO
*Required cofactors are added individually to each kinase reaction
(i) Prepare indicated substrate in freshly prepared Base Reaction Buffer
(ii) Deliver any required cofactors to the substrate solution above
(iii) Deliver indicated kinase into the substrate solution and gently mix
(iv) Deliver compounds in DMSO into the kinase reaction mixture
(v) Deliver ^33P-ATP (specific activity 0.01 μCi/μl final) into the reaction mixture to initiate the reaction.
(vi) Incubate kinase reaction for 120 minutes at room temperature
(vii) Reactions are spotted onto P81 ion exchange paper (Whatman #3698-915)
(viii) Wash filters extensively in 0.1% phosphoric acid.
(ix) Dry filters and measure counts in scintillation counter
Recombinant full length construct, N-terminal GST tagged, purified from insect cells.
No special measures were taken to activate this kinase.
Final concentration in assay=0.5 nM
Peptide sequence: [[…]]
Final concentration in assay=20 μM
No additional cofactors are added to the reaction mixture

[1] = Chk-1 kinase, Table 3, read-out: IC50
[2] = ranges given, read-out: IC50 values against Chk-1 kinase

N#Cc1cnc(NC(=O)Nc2ccc(CCNCCc3ccc(F)cc3)c(Cl)c2)cn1 [Example 7, 1-(3-Chloro-4-(2-(4-fluorophenethylamino)ethyl)phenyl)-3-(5-cyanopyrazin-2-yl)urea]
fold shift in the IC50 value of SN38 (HT29 cells; test compound at 1 μM): two
IC50 (Chk-1 kinase; [1]): 16 nM
IC50 (Chk-1 kinase; [2]): 10 to 100 nM

N#Cc1cnc(NC(=O)Nc2ccc(CCNCc3ccc(Cl)cc3)c(Cl)c2)cn1 [Example 8, 1-{3-Chloro-4-[2-(4-chloro-benzylamino)-ethyl]-phenyl}-3-(5-cyano-pyrazin-2-yl)-urea]
fold shift in the IC50 value of SN38 (HT29 cells; test compound at 3 μM): three; also recorded: greater than ten
IC50 (Chk-1 kinase; [1]): 11 nM
IC50 (Chk-1 kinase; [2]): 10 to 100 nM

N#Cc1cnc(NC(=O)Nc2ccc(CCNCc3cccc(F)c3)c(Cl)c2)cn1 [Example 9, 1-{3-Chloro-4-[2-(3-fluoro-benzylamino)-ethyl]-phenyl}-3-(5-cyano-pyrazin-2-yl)-urea]
fold shift in the IC50 value of SN38 (HT29 cells; test compound at 3 μM): three; also recorded: greater than ten
IC50 (Chk-1 kinase; [1]): 2 nM
IC50 (Chk-1 kinase; [2]): < 10 nM

N#Cc1cnc(NC(=O)Nc2ccc(CCNCc3ccccc3Cl)c(Cl)c2)cn1 [Example 10, 1-{3-Chloro-4-[2-(2-chloro-benzylamino)-ethyl]-phenyl}-3-(5-cyano-pyrazin-2-yl)-urea]
fold shift in the IC50 value of SN38 (HT29 cells; test compound at 3 μM): three
IC50 (Chk-1 kinase; [1]): 62 nM
IC50 (Chk-1 kinase; [2]): 10 to 100 nM

CN(CCc1ccc(NC(=O)Nc2cnc(C#N)cn2)cc1Cl)Cc1ccc(F)cc1 [Example 11, 1-(3-Chloro-4-{2-[(4-fluoro-benzyl)-methyl-amino]-ethyl}-phenyl)-3-(5-cyano-pyrazin-2-yl)-urea]
fold shift in the IC50 value of SN38 (HT29 cells; test compound at 3 μM): three
IC50 (Chk-1 kinase; [1]): 146 nM
IC50 (Chk-1 kinase; [2]): 100 to 1000 nM

COc1cccc(CNCCc2ccc(NC(=O)Nc3cnc(C#N)cn3)cc2Cl)c1 [Example 12, 1-{3-Chloro-4-[2-(3-methoxy-benzylamino)-ethyl]-phenyl}-3-(5-cyano-pyrazin-2-yl)-urea]
fold shift in the IC50 value of SN38 (HT29 cells; test compound at 3 μM): three; also recorded: greater than ten
IC50 (Chk-1 kinase; [1]): 11 nM
IC50 (Chk-1 kinase; [2]): 10 to 100 nM

N#Cc1cnc(NC(=O)Nc2ccc(CCNCc3cccc(Cl)c3)c(Cl)c2)cn1 [Example 13, 1-{3-Chloro-4-[2-(3-chloro-benzylamino)-ethyl]-phenyl}-3-(5-cyano-pyrazin-2-yl)-urea hydrochloride]
fold shift in the IC50 value of SN38 (HT29 cells; test compound at 1 μM): two
IC50 (Chk-1 kinase; [1]): 37 nM
IC50 (Chk-1 kinase; [2]): 10 to 100 nM

N#Cc1cnc(NC(=O)Nc2ccc(CCNCc3ccc(OC(F)(F)F)cc3)c(Cl)c2)cn1 [Example 14, 1-{3-Chloro-4-[2-(4-trifluoromethoxy-benzylamino)-ethyl]-phenyl}-3-(5-cyano-pyrazin-2-yl)-urea]
fold shift in the IC50 value of SN38 (HT29 cells; test compound at 3 μM): three
IC50 (Chk-1 kinase; [1]): 68 nM
IC50 (Chk-1 kinase; [2]): 10 to 100 nM

COc1ccc(CNCCc2ccc(NC(=O)Nc3cnc(C#N)cn3)cc2Cl)cc1 [Example 15, 1-{3-Chloro-4-[2-(4-methoxy-benzylamino)-ethyl]-phenyl}-3-(5-cyano-pyrazin-2-yl)-urea]
fold shift in the IC50 value of SN38 (HT29 cells; test compound at 3 μM): three; also recorded: greater than ten
IC50 (Chk-1 kinase; [1]): 3.5 nM
IC50 (Chk-1 kinase; [2]): < 10 nM

COc1ccccc1CNCCc1ccc(NC(=O)Nc2cnc(C#N)cn2)cc1Cl [Example 16, 1-{3-Chloro-4-[2-(2-methoxy-benzylamino)-ethyl]-phenyl}-3-(5-cyano-pyrazin-2-yl)-urea]
fold shift in the IC50 value of SN38 (HT29 cells; test compound at 1 μM): two
IC50 (Chk-1 kinase; [1]): 13 nM
IC50 (Chk-1 kinase; [2]): 10 to 100 nM

N#Cc1cnc(NC(=O)Nc2ccc(CCNCc3ccc(C(F)(F)F)cc3)c(Cl)c2)cn1 [Example 17, 1-{3-Chloro-4-[2-(4-trifluoromethyl-benzylamino)-ethyl]-phenyl}-3-(5-cyano-pyrazin-2-yl)-urea hydrochloride]
fold shift in the IC50 value of SN38 (HT29 cells; test compound at 1 μM): two
IC50 (Chk-1 kinase; [1]): 78 nM
IC50 (Chk-1 kinase; [2]): 10 to 100 nM

C[C@H](NCCc1ccc(NC(=O)Nc2cnc(C#N)cn2)cc1Cl)c1ccc(F)cc1 [Example 18, 1-(3-Chloro-4-{2-[(S)-1-(4-fluoro-phenyl)-ethylamino]-ethyl}-phenyl)-3-(5-cyano-yrazin-2-yl)-urea hydrochloride]
fold shift in the IC50 value of SN38 (HT29 cells; test compound at 1 μM): two
IC50 (Chk-1 kinase; [1]): 21 nM
IC50 (Chk-1 kinase; [2]): 10 to 100 nM

COc1cc(CCNCc2cccc(F)c2)c(Cl)cc1NC(=O)Nc1cnc(C#N)cn1 [Example 19, 1-{5-Chloro-4-[2-(3-fluoro-benzylamino)-ethyl]-2-methoxy-phenyl}-3-(5-cyano-pyrazin-2-yl)-urea hydrochloride]
Cell potentiation factor (HT29 cells; compound at 3 μM): 50 fold
IC50 (Chk-1 kinase; [1]): 1.2 nM
IC50 (Chk-1 kinase; comparative tests, Example 70, read-out: Chk-1 IC50): 8 nM
IC50 (Chk-1 kinase; [2]): < 10 nM

N#Cc1cnc(NC(=O)Nc2ccc(CCNCc3ccccc3F)c(Cl)c2)cn1 [Example 23, 1-{3-Chloro-4-[2-(2-fluoro-benzylamino)-ethyl]-phenyl}-3-(5-cyano-pyrazin-2-yl)-urea]
fold shift in the IC50 value of SN38 (HT29 cells; test compound at 3 μM): three; also recorded: greater than ten
IC50 (Chk-1 kinase; [1]): 11 nM
IC50 (Chk-1 kinase; [2]): 10 to 100 nM

N#Cc1cnc(NC(=O)Nc2ccc(OCCNCc3ccc(F)cc3)c(Cl)c2)cn1 [Example 26, 1-{3-Chloro-4-[2-(4-fluoro-benzylamino)-ethoxy]-phenyl}-3-(5-cyano-pyrazin-2-yl)-urea]
fold shift in the IC50 value of SN38 (HT29 cells; test compound at 3 μM): three
IC50 (Chk-1 kinase; [1]): 21 nM
IC50 (Chk-1 kinase; [2]): 10 to 100 nM

COc1cc(CCNCc2ccc(F)cc2)ccc1NC(=O)Nc1cnc(C)cn1 [Example 27, 1-{4-[2-(4-Fluoro-benzylamino)-ethyl]-2-methoxy-phenyl}-3-(5-methyl-pyrazin-2-yl)-urea hydrochloride]
fold shift in the IC50 value of SN38 (HT29 cells; test compound at 3 μM): three
IC50 (Chk-1 kinase; [1]): 33 nM
IC50 (Chk-1 kinase; [2]): 10 to 100 nM

N#Cc1cnc(NC(=O)Nc2ccc(CNCc3ccccc3)cc2)cn1 [Example 29, 1-[4-(Benzylamino-methyl)-phenyl]-3-(5-cyano-pyrazin-2-yl)-urea]
fold shift in the IC50 value of SN38 (HT29 cells; test compound at 10 μM): four
Cell potentiation factor (HT29 cells; compound at 10 μM): 4 fold
IC50 (Chk-1 kinase; [1]): 320 nM
IC50 (Chk-1 kinase; [2]): 100 to 1000 nM

COc1cc(CCNCCc2ccc(F)cc2)ccc1NC(=O)Nc1cnc(C#N)cn1 [Example 31, 1-(5-Cyano-pyrazin-2-yl)-3-(4-{2-[2-(4-fluoro-phenyl)-ethylamino]-ethyl}-2-methoxy-phenyl)-urea]
fold shift in the IC50 value of SN38 (HT29 cells; test compound at 3 μM): three
IC50 (Chk-1 kinase; [1]): 2.7 nM
IC50 (Chk-1 kinase; [2]): < 10 nM

N#Cc1cnc(NC(=O)Nc2cccc(CCNCc3ccc(F)cc3)c2)cn1 [Example 34, 1-(5-Cyano-pyrazin-2-yl)-3-{3-[2-(4-fluoro-benzylamino)-ethyl]-phenyl}-urea]
fold shift in the IC50 value of SN38 (HT29 cells; test compound at 3 μM): three
IC50 (Chk-1 kinase; [1]): 69 nM

N#Cc1cnc(NC(=O)Nc2ccc(CCNCc3cccc(N4CCOCC4)c3)c(Cl)c2)cn1 [Example 39, 1-{3-Chloro-4-[2-(3-morpholin-4-yl-benzylamino)-ethyl]-phenyl}-3-(5-cyano-pyrazin-2-yl)-urea]
fold shift in the IC50 value of SN38 (HT29 cells; test compound at 3 μM): three
IC50 (Chk-1 kinase; [1]): 12 nM

N#Cc1cnc(NC(=O)Nc2ccc(CCNCc3ccc(F)c(F)c3)c(Cl)c2)cn1 [Example 40, 1-{3-Chloro-4-[2-(3,4-difluoro-benzylamino)-ethyl]-phenyl}-3-(5-cyano-pyrazin-2-yl)-urea]
fold shift in the IC50 value of SN38 (HT29 cells; test compound at 3 μM): three
IC50 (Chk-1 kinase; [1]): 7.9 nM
IC50 (Chk-1 kinase; [2]): < 10 nM

COc1cc(CCNCc2ccc(F)cc2)c(Br)cc1NC(=O)Nc1cnc(C#N)cn1 [Example 42, 1-{5-Bromo-4-[2-(4-fluoro-benzylamino)-ethyl]-2-methoxy-phenyl}-3-(5-cyano-pyrazin-2-yl)-urea hydrochloride]
fold shift in the IC50 value of SN38 (HT29 cells; test compound at 1 μM): two
fold shift in the IC50 value of SN38 (HT29 cells; test compound at 3 μM): greater than ten
IC50 (Chk-1 kinase; [1]): 0.45 nM
IC50 (Chk-1 kinase; [2]): < 10 nM

Source: patent publication US8716287B2, “Pharmaceutical compounds” (Sentinel Oncology Limited, priority 2010, dated 2014)
